One assay deals with T1, human TRPV1 (Homo sapiens, UniProt Q8NER1).
T1 construct: expressed in transfected cells; host or cells: HEK293 (hTRPV1/HEK293), zeocin selection
As to the kind of experiment: Functional assay: block of capsaicin-induced Ca2+ influx, human assay (hTRPV1/HEK293, FLIPR). Format: cell-based. The settings on record: hTRPV1/HEK293 cells, 150 nM capsaicin challenge, Fluo-3 fluorescence; mean; > value = solubility limit in assay medium. Summed up: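 HEK293 cells stably expressing human TRPV1, fluo3-loaded, preincubated 30 min with compound (serial 3-fold dilutions from 10 μM, duplicate) in 20 μM Ca2+ buffer. Capsaicin response taken as fluo3 fluorescence change before vs 100 s after agonist; IC50 by non-linear regression, mean values; free base or TFA salt.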

A further assay addresses T2, rat TRPV1 (Rattus norvegicus, UniProt O35433).
T2 construct: expressed in transfected cells; host or cells: HEK293 (rTRPV1/HEK293), geneticin selection
As to the kind of experiment: Functional assay: block of capsaicin-induced Ca2+ influx, rat assay (rTRPV1/HEK293, FLIPR). It is filed as cell-based. The following applies: rTRPV1/HEK293 cells, capsaicin challenge, Fluo-3 fluorescence; mean; > value = solubility limit in assay medium. Summed up: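 Compounds, as free base or TFA salt, tested from 10 μM in three-fold steps on rTRPV1-transfected HEK293 cells, with 30 min preincubation in low-calcium (20 μM) buffer. Capsaicin-evoked Ca2+ influx measured by FLIPR fluo3 signal before and 100 s after addition. Averaged IC50 from non-linear fits.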

SMILES strings stand for the structures.

T1 sequence (Q8NER1 whole entry): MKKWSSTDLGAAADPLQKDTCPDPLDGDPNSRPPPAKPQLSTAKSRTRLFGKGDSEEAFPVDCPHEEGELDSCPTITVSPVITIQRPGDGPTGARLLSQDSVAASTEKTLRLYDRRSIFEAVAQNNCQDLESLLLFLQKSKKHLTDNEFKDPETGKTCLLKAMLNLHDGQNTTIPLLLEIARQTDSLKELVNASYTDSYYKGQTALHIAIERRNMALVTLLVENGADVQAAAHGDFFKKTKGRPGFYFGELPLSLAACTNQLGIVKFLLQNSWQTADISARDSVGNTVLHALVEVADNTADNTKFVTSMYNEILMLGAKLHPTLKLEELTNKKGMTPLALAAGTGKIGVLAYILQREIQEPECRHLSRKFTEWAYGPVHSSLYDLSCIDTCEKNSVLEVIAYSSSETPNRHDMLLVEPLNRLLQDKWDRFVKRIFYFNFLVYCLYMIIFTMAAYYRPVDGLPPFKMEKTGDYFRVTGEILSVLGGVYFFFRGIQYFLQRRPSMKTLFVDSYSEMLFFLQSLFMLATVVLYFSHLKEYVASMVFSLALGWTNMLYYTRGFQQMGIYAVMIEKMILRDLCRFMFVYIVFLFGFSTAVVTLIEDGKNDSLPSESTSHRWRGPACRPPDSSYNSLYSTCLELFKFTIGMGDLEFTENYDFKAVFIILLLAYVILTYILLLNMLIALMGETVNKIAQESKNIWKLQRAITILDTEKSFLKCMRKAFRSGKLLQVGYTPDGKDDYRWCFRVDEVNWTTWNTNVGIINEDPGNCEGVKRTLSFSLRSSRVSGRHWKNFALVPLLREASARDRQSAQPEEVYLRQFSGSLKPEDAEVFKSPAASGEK
T2 sequence (O35433 whole entry): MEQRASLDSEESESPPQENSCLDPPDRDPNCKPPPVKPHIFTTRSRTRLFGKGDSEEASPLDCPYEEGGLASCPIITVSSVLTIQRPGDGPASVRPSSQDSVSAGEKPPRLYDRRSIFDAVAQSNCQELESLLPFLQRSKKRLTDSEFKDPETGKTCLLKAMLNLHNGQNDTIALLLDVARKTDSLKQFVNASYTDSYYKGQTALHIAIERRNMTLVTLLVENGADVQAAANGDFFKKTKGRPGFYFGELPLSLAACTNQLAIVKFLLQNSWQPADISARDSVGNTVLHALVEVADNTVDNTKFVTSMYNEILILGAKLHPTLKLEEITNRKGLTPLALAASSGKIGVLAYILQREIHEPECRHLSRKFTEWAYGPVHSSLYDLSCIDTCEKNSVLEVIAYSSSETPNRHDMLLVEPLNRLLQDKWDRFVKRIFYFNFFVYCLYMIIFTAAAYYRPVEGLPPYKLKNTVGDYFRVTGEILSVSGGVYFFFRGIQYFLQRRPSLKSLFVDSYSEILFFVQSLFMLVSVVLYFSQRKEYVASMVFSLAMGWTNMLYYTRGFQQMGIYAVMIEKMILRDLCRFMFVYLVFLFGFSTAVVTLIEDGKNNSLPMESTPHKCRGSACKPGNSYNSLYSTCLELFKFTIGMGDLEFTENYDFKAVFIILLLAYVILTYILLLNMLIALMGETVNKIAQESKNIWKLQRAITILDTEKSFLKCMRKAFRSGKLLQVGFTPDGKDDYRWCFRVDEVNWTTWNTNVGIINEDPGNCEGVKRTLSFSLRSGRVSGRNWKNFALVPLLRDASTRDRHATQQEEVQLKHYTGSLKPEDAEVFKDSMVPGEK

Usually IC50 stands for the concentration that gives 50% inhibition. Read a low IC50 as greater potency in that assay. As for `Cc1nc(Nc2ccc(C(F)(F)F)nc2)c2nc(Nc3c(-c4ccccc4)noc3C)sc2n1` [Example 26, 5-Methyl-N^2-(5-methyl-3-phenyl-isoxazol-4-yl)-N^7-(6-trifluoromethyl-pyridin-3-yl)-thiazolo[5,4-d]pyrimidine-2,7-diamine], the half-inhibitory concentration (IC50) stood at 208 nM against human TRPV1 and 55 nM against rat TRPV1.

As to `CC1CCCCN1c1nc(Nc2ccc(C(F)(F)F)c(Cl)c2)c2nc(Nc3c(Cl)cccc3Cl)sc2n1` (racemic) [Example 136, (racemic)-N^7-(3-Chloro-4-trifluoromethyl-phenyl)-N^2-(2,6-dichloro-phenyl)-5-(2-methyl-piperidin-1-yl)-thiazolo[5,4-d]pyrimidine-2,7-diamine], the concentration for half-maximal inhibition (IC50) is 205 nM against human TRPV1 and 25 nM against rat TRPV1.

For the compound `Cc1nc(NC2CCC(C(C)(C)C)CC2)c2nc(Nc3c(C)cccc3C)sc2n1` (mixture of isomers) [Example 249, N^7-(4-tert-Butyl-cyclohexyl)-N^2-(2,6-dimethyl-phenyl)-5-methyl-thiazolo[5,4-d]pyrimidine-2,7-diamine], the 50% inhibitory concentration (IC50) against human TRPV1 was determined as 4370 nM; at rat TRPV1 it was 1010 nM.

On to `Cc1nc(Nc2ccc(S(=O)(=O)N3CCCC3)cc2)c2nc(Nc3c(Cl)cccc3Cl)sc2n1` [Example 73, N^2-(2,6-Dichloro-phenyl)-5-methyl-N^7-[4-(pyrrolidine-1-sulfonyl)-phenyl]-thiazolo[5,4-d]pyrimidine-2,7-diamine], for which the IC50 against human TRPV1 and against rat TRPV1 was 1 nM throughout.

In the case of `Cc1nc(Nc2ccc(C(F)(F)F)cc2)c2nc(Nc3c(C)noc3C)sc2n1` [Example 208, N^2-(3,5-Dimethyl-isoxazol-4-yl)-5-methyl-N^7-(4-trifluoromethyl-phenyl)thiazolo[5,4-d]pyrimidine-2,7-diamine], the IC50 at human TRPV1 is 401 nM; against rat TRPV1, 398 nM.

For `COc1ccc(Nc2ncnc3sc(Nc4c(C)cccc4C)nc23)cc1` [Example 33, N^2-(2,6-Dimethyl-phenyl)-N^7-(4-methoxy-phenyl)-thiazolo[5,4-d]pyrimidine-2,7-diamine], the IC50 against human TRPV1 was 205 nM; against rat TRPV1, 70 nM.

Regarding `CNCCNc1nc(Nc2ccc(C(F)(F)F)cc2)c2nc(Nc3c(Cl)cccc3Cl)sc2n1` [Example 181, N^2-(2,6-Dichloro-phenyl)-N^5-(2-methylamino-ethyl)-N^7-(4-trifluoromethyl-phenyl)-thiazolo[5,4-d]pyrimidine-2,5,7-triamine], the IC50 against human TRPV1 was 6440 nM; on rat TRPV1 it was greater than 20000 nM.

As to `CSc1ccccc1Nc1nc2c(Nc3ccc(C(F)(F)F)cc3)ncnc2s1` [Example 196, N^2-(2-Methylsulfanyl-phenyl)-N^7-(4-trifluoromethyl-phenyl)-thiazolo[5,4-d]pyrimidine-2,7-diamine], the half-maximal inhibitory concentration (IC50) on human TRPV1 was 64 nM; at rat TRPV1, 37 nM.

With `Cc1cccc(C)c1Nc1nc2c(Nc3ccc(S(=O)(=O)N4CCN(C)CC4)cc3)ncnc2s1` [Example 110, N^2-(2,6-Dimethyl-phenyl)-N^7-[4-(4-methyl-piperazine-1-sulfonyl)-phenyl]-thiazolo[5,4-d]pyrimidine-2,7-diamine], the figures for the IC50 against human TRPV1 and against rat TRPV1 were 26 nM and 20 nM, respectively.

Take `FC(F)(F)c1ccc(Nc2nc3c(Nc4ccc(C(F)(F)F)cc4)ncnc3s2)cc1` [Example 22, N^2,N^7-Bis-(4-trifluoromethyl-phenyl)-thiazolo[5,4-d]pyrimidine-2,7-diamine]: the IC50 is greater than 6670 nM at human TRPV1 and 1690 nM on rat TRPV1.

Turning to `Cc1cccc(C)c1Nc1nc2c(Nc3ccc(S(C)(=O)=O)c(F)c3)ncnc2s1` [Example 97, N^2-(2,6-Dimethyl-phenyl)-N^7-(3-fluoro-4-methanesulfonyl-phenyl)-thiazolo[5,4-d]pyrimidine-2,7-diamine], the half-inhibitory concentration (IC50) against human TRPV1 came out at 12 nM; against rat TRPV1, 32 nM.

With `Cc1noc(C)c1Nc1nc2c(Nc3ccc(S(=O)(=O)N4CCOCC4)cc3)ncnc2s1` [Example 221, N^2-(3,5-Dimethylisoxazol-4-yl)-N^7-[4-(morpholin-4-ylsulfonyl)phenyl][1,3]thiazolo[5,4-d]pyrimidine-2,7-diamine], the IC50 was determined as 1080 nM against human TRPV1 and 271 nM against rat TRPV1.

With `CN1CCN(c2nc(Nc3ccc(C(F)(F)F)cc3)c3nc(Nc4c(Cl)cccc4Cl)sc3n2)CC1` [Example 187, N^2-(2,6-Dichloro-phenyl)-5-(4-methyl-piperazin-1-yl)-N^7-(4-trifluoromethyl-phenyl)-thiazolo[5,4-d]pyrimidine-2,7-diamine], the IC50 on human TRPV1 is 809 nM; at rat TRPV1, 1320 nM.

Turning to `Cc1cccc(C)c1Nc1nc2c(Nc3ccc(SC(F)(F)F)cc3)ncnc2s1` [Example 40, N^2-(2,6-Dimethyl-phenyl)-N^7-(4-trifluoromethylsulfanyl-phenyl)-thiazolo[5,4-d]pyrimidine-2,7-diamine], the values for the half-maximal inhibitory concentration (IC50) on human TRPV1 and against rat TRPV1 were 67 nM and 16 nM, respectively.

In the case of `FC(F)(F)c1ccc(Nc2nc(N3CCOCC3)nc3sc(Nc4c(Cl)cccc4Cl)nc23)cc1` [Example 64, N^2-(2,6-Dichloro-phenyl)-5-morpholin-4-yl-N^7-(4-trifluoromethyl-phenyl)-thiazolo[5,4-d]pyrimidine-2,7-diamine], the IC50 came out at 41 nM on human TRPV1 and 17 nM against rat TRPV1.

Consider `Cc1ccc(Nc2ncnc3sc(Nc4c(C)cccc4C)nc23)cc1F` [Example 148, N^2-(2,6-Dimethyl-phenyl)-N^7-(3-fluoro-4-methyl-phenyl)-thiazolo[5,4-d]pyrimidine-2,7-diamine], for which the 50% inhibitory concentration (IC50) on human TRPV1 was found to be 735 nM; against rat TRPV1 it was 126 nM.

On to `C[C@@H](O)CNc1nc(Nc2ccc(C(F)(F)F)cc2)c2nc(Nc3c(Cl)cccc3Cl)sc2n1` [Example 250, (R)-1-[2-(2,6-Dichloro-phenylamino)-7-(4-trifluoromethyl-phenylamino)-thiazolo[5,4-d]pyrimidin-5-ylamino]-propan-2-ol], for which the results for the half-inhibitory concentration (IC50) against human TRPV1 and on rat TRPV1 were 3.3 nM and 0.7 nM, respectively.

As for `Cc1cccc(C)c1Nc1nc2c(Nc3cccc(C(F)(F)F)c3)ncnc2s1` [Example 42, N^2-(2,6-Dimethyl-phenyl)-N^7-(3-trifluoromethyl-phenyl)-thiazolo[5,4-d]pyrimidine-2,7-diamine], the 50% inhibitory concentration (IC50) was found to be 4980 nM against human TRPV1 and 236 nM on rat TRPV1.

With `CS(=O)(=O)c1ccc(Nc2nc(N3CCCCC3)nc3sc(Nc4c(Cl)cccc4Cl)nc23)cc1` [Example 129, N^2-(2,6-Dichloro-phenyl)-N^7-(4-methanesulfonyl-phenyl)-5-piperidin-1-yl-thiazolo[5,4-d]pyrimidine-2,7-diamine], the figures for the IC50 against human TRPV1 and against rat TRPV1 were 149 nM and 23 nM, respectively.

`CC(C)N1CCN(c2nc(Nc3ccc(C(F)(F)F)cc3)c3nc(Nc4c(Cl)cccc4Cl)sc3n2)CC1` [Example 69, N^2-(2,6-Dichloro-phenyl)-5-(4-isopropyl-piperazin-1-yl)-N^7-(4-trifluoromethyl-phenyl)-thiazolo[5,4-d]pyrimidine-2,7-diamine]: the IC50 against human TRPV1 came out at 185 nM; against rat TRPV1 it was 154 nM.

With `Cc1cccc(C)c1Nc1nc2c(Nc3ccc(C(F)(F)F)c(Cl)c3)ncnc2s1` [Example 13, N^7-(3-Chloro-4-trifluoromethyl-phenyl)-N^2-(2,6-dimethyl-phenyl)-thiazolo[5,4-d]pyrimidine-2,7-diamine], the half-maximal inhibitory concentration (IC50) against human TRPV1 is 113 nM; on rat TRPV1, 34 nM.

The values above are taken from patent US20080004253A1, “Thiazolopyrimidine modulators of TRPV1” (priority 2006, published 2008).
